Source: paper PMC8037310, “Thrombin-Derived Peptides Potentiate the Activity of Gram-Positive-Specific Antibiotics against Gram-Negative Bacteria” (Molecules, 2021)
Where “and” joins values, the source holds several entries; their conditions need not be identical. Equal entries are not always repeated. Bridge positions count the residues as written; N and C are the ends. Square brackets hold non-standard residues; d marks the D form. Peptide text beside a SMILES is read from it. Dab = NCC[C@H](N)C(=O)O

Tests used:
P. aeruginosa ATCC27853 = experiment: Checkerboard assay with rifampicin; type: cell-based, Pseudomonas aeruginosa
Protocol: (§1) All peptides were screened for antimicrobial activity against E. coli BW25113, E. coli ATCC25922, and E. coli W3110. A select group of the peptides was further tested against E. coli mcr-1, E. coli EQASmcr-1 (EQAS 2016 412016126), E. coli EQASmcr-2 (EQAS 2016 KP37), E. coli EQASmcr-3 (EQAS 2017 2013-SQ352), K. pneumoniae ATCC13883, P. aeruginosa ATCC27853, and A. baumannii ATCC17978. The antimicrobial assay was performed according to CLSI guidelines. Bacteria were plated out directly from their glycerol stocks on blood agar plates, incubated overnight at 37 °C, and then kept in the fridge. The blood agar plates were only used for 2 weeks and then replaced.
(§2) One colony from a blood agar plates was inoculated in Lysogeny Broth (LB) at 37 °C until a 0.5 optical density at 600 nm (OD600) was reached (compared to the sterility control of LB). The bacterial suspension was diluted in fresh LB to 2.0 × 10^6 CFU/mL. The serial dilutions were prepared in polypropylene microtiter plates: a stock of the test compounds was prepared with a 2x final concentration in LB. Moreover, 100 µL of the stock was added to the wells of the top row of which 50 µL was used for the serial dilution. The bottom row of each plate was used as the positive (50 µL of LB) and negative controls (100 µL of LB) (6 wells each). Furthermore, 50 µL of the 2.0 × 10^6 CFU/mL bacterial stock was added to each well except for the negative controls, adding up to a total volume of 100 µL per well. The plates were sealed with a breathable seal and incubated for 20 h at 37 °C and 600 rpm.
(§3) Two 96-well plates were required per compound. A serial dilution of the compound was performed on two plates from row A–G using with LB as medium. Row H was filled with 25 µL medium. On a separate plate a negative control (8 wells, 100 μL medium) was prepared. For all concentrations of antibiotic a specific stock was prepared. 25 µL medium was added to the 0 µg/mL antibiotic columns (plate I, column 1–3). Of each antibiotic stock 25 µL was added to three columns to obtain triplicates for every condition. Both plates contained 50 µL in each well to which 50 µL bacterial stock was added (see the protocol of the MIC assays) and the plates were sealed. After incubation for 20 h at 37 °C while shaking, the breathable seals were removed and the density of the bacterial suspensions measured at 600 nm (OD600) using a Tecan Spark plate reader. The OD600 values were transformed to a 2D gradient with the negative control as minimum and the positive control (wells G1, G2, and G3) as maximum in excel. The FICi was calculated using Equation (1) with a FICi ≤ 0.5 indicating synergy. FICi = (MSCa/MICa) + (MSCb/MICb),(1)
(§4) Calculation of the FICi: MSCa = concentration of the […] in combination with the antibiotic that results in the lowest FICi. MICa = MIC of the antibiotic without synergist (row G). MSCb = concentration of the synergist in combination with the antibiotic that results in the lowest FICi. MICb = MIC of the synergist itself (Column 1–3, plate I).

E. coli mcr-1 = type: cell-based, Escherichia coli; conditions: rifampicin without synergist; E. coli mcr-1
Protocol: as §1, §2, §3, §4

E. coli ATCC25922 = type: cell-based, Escherichia coli; conditions: rifampicin without synergist; E. coli ATCC25922
Protocol: as §1, §2, §3, §4

A. baumannii ATCC17978 = experiment: microbe, parasite or virus in culture; type: cell-based, Acinetobacter baumannii
Protocol: as §1, §2, §3, §4

K. pneumoniae ATCC13883 = experiment: Checkerboard assay with rifampicin; type: cell-based, Klebsiella pneumoniae
Protocol: as §1, §2, §3, §4

E. coli BW25113 [1] = experiment: microbe, parasite or virus in culture; type: cell-based, Escherichia coli
Protocol: as §1, §2, §3, §4

E. coli BW25113 [2] = experiment: Membrane permeability assay using N-phenylnaphthalen-1-amine (NPN); type: cell-based, Escherichia coli; conditions: at […]; 60 min incubation, λex 355 nm, λem 420 nm, relative to 100 µg/mL colistin; n = 3 technical replicates
Protocol: Figure 7 Permeabilization assay of E. coli BW25113 using N-Phenyl-1-naphthylamine as fluorescent probe. The read-out was performed after 60 min of incubation using a plate reader with λex 355 nm and λem 420 nm. The N-phenyl-napthalen-1-amine (NPN) uptake values shown are relative to the uptake signal obtained upon treating the cells with 100 µg/mL colistin as previously reported. Error bars represent the standard deviation based on n = 3 technical replicates. A read-out was also performed after 10 min of incubation (see Supplementary data, Figure S16).
This assay was adapted from a protocol described in literature. Bacteria were inoculated overnight at 37 °C in LB, diluted the next day 50× in LB and grown to OD600 of 0.5. The bacterial suspension was then centrifuged for 10 min at 1000× g at 25 °C. The pellet of bacteria was resuspended in 5 mM HEPES buffer containing 20mM glucose to a final concentration of OD600 of 1.0. […] After 10 and 60 min, the plate was measured using Tecan plate reader with λex 355 nm ±20 nm and λem 420 nm ± 20 nm. The fluorescence values obtained were then transformed into a NPN uptake percentage using the following Equation (2):NPN uptake (%) = (Fobs − F0)/(F100 − F0) × 100%,(2)
Equation (2) consists of an observed value of fluorescence (Fobs), which is corrected for background using the negative control (F0). […]

E. coli BW25113 [3] = experiment: Checkerboard assay with erythromycin; type: cell-based, Escherichia coli; conditions: for MSCery: erythromycin concentration in the combination with the synergist giving the lowest FICi, E. coli BW25113; for MIC of the peptide (MICpep): synergist alone, from checkerboard with erythromycin; for MIC of the peptide (MICpep) / MSCpeptide, minimum synergistic concentration: E. coli BW25113, LB, 20 h 37 °C; for MSCpeptide, minimum synergistic concentration: synergist concentration in the combination with erythromycin giving the lowest FICi, OD600
Protocol: as §1, §2, §3, §4

E. coli BW25113 [4] = type: cell-based, Escherichia coli; conditions: for MSCrif: rifampicin concentration in the combination giving the lowest FICi; for MSCrif / MSCpep: E. coli BW25113; for MICpep: synergist alone, E. coli BW25113, from checkerboard with rifampicin; for MSCpep: synergist concentration in the combination with rifampicin giving the lowest FICi
Protocol: as §1, §2, §3, §4

E. coli BW25113 [5] = experiment: microbe, parasite or virus in culture; type: cell-based, Escherichia coli; remark: listed apart in the source
Protocol: as §1, §2, §3, §4

[6] = test system: defibrinated sheep blood (red blood cells); experiment: Hemolysis assay; type: cell-based; conditions: 200 µg/mL compound, 20 h incubation at 37 °C with defibrinated sheep blood, PBS 0.002% Tween20, absorbance 415 nm, relative to 0.1% Triton X-100; n=3 technical replicates
Protocol: Defibrinated sheep blood (Thermo Fisher Scientific) and a phosphate-buffered saline (PBS) buffer containing 0.002% Tween20 were used in this assay. The red blood cells were washed with buffer followed by centrifugation (400 g for 15 min at 4 °C). The red blood cells were then normalized to obtain a positive control read-out around 2.5 at 415 nm to stay in the linear range with the maximum sensitivity. A serial dilution of the compounds (200–1.56 µg/mL, 75 µL) was prepared in a 96-well plate. Each plate contained a positive control (0.1% Triton X-100 final concentration, 75 µL) and the negative control (buffer, 75 µL). After addition of normalized blood cells (75 µL), the plates were incubated for 20 h at 37 °C at 500 rpm. The plates were centrifuged (800× g for 5 min at room temperature). For the next step flat-bottom polystyrene plates were prepared with 100 µL buffer in each well. Aliquots of 25 µL supernatant from the centrifuged plates were then transferred to their respective wells in the flat-bottom plate. Absorbance values where measured at 415 nm and corrected for background (negative control) and transformed to a percentage hemolysis relative to the positive control.

In the case of `CO[C@H]1/C=C/O[C@@]2(C)Oc3c(C)c(O)c4c(O)c(c(/C=N/N5CCN(C)CC5)c(O)c4c3C2=O)NC(=O)/C(C)=C\C=C\[C@H](C)[C@H](O)[C@@H](C)[C@@H](O)[C@@H](C)[C@H](OC(C)=O)[C@@H]1C` [rifampicin, reference compound], the MIC (P. aeruginosa ATCC27853; Pseudomonas aeruginosa, ATCC27853, read-out: MIC of rifampicin (MICrif)) is reported as 16 µg/mL, the “MIC of rifampicin (MICrif)” value (P. aeruginosa ATCC27853; rifampicin without synergist, P. aeruginosa ATCC27853) is reported as 16 µg/mL and the MICrif (E. coli mcr-1) is reported as 12 µg/mL. The MICrif (E. coli ATCC25922) was 4 µg/mL, the MIC (A. baumannii ATCC17978; Acinetobacter baumannii, ATCC17978, read-out: MIC of rifampicin (MICrif)) was 2 µg/mL and the “MIC of rifampicin (MICrif)” value (A. baumannii ATCC17978; rifampicin without synergist, A. baumannii ATCC17978) was 2 µg/mL. The MIC (K. pneumoniae ATCC13883; Klebsiella pneumoniae, ATCC13883, read-out: MIC of rifampicin (MICrif)) was 32 µg/mL and the “MIC of rifampicin (MICrif)” value (K. pneumoniae ATCC13883; rifampicin without synergist, K. pneumoniae ATCC13883) was 32 µg/mL.

With `CC(C)C[C@@H]1NC(=O)[C@@H](Cc2ccccc2)NC(=O)[C@H](CCN)NC(=O)[C@@H](NC(=O)[C@H](CCN)NC(=O)[C@@H](N)[C@@H](C)O)CCNC(=O)[C@H]([C@@H](C)O)NC(=O)[C@H](CCN)NC(=O)[C@H](CCN)NC1=O` [PMBN, polymyxin B nonapeptide, reference compound] (H-T[Dab][Dab][Dab][dF]L[Dab][Dab]T; lactam 3-C (inferred); N-terminus assumed) the MICpeptide (E. coli BW25113 [1]; synergist alone, E. coli BW25113, from checkerboard with vancomycin) was > 200 µg/mL, the MSCpeptide (E. coli BW25113 [1]; synergist concentration in the combination with vancomycin giving the lowest FICi, E. coli BW25113) was 12.5 µg/mL and the MSCvanco (E. coli BW25113 [1]; vancomycin concentration in the combination giving the lowest FICi, E. coli BW25113) was 50 µg/mL. The “OM permeabilization (NPN uptake)” value (E. coli BW25113 [2]) was “ca. 80%”, the FICi (E. coli BW25113 [3]; BW25113, 20 h) was 0.125 and the MSCery (E. coli BW25113 [3]) was 12.5 µg/mL. The “MIC of the peptide (MICpep)” value (E. coli BW25113 [3]) was > 200 µg/mL, the “MSCpeptide, minimum synergistic concentration” value (E. coli BW25113 [3]) was 25 µg/mL and the MSCrif (E. coli BW25113 [4]) was 0.25 µg/mL. The MICpep (E. coli BW25113 [4]) was > 200 µg/mL, the MSCpep (E. coli BW25113 [4]) was 12.5 µg/mL and the MSCnovo (E. coli BW25113 [5]; novobiocin concentration in the combination giving the lowest FICi, E. coli BW25113) was 6.25 µg/mL. The MICpeptide (E. coli BW25113 [5]; synergist alone, E. coli BW25113, from checkerboard with novobiocin) was > 200 µg/mL and the MSCpeptide (E. coli BW25113 [5]; synergist concentration in the combination with novobiocin giving the lowest FICi, E. coli BW25113) was 12.5 µg/mL.

With `CN[C@H](CC(C)C)C(=O)N[C@H]1C(=O)N[C@@H](CC(N)=O)C(=O)N[C@H]2C(=O)N[C@H]3C(=O)N[C@H](C(=O)N[C@H](C(=O)O)c4cc(O)cc(O)c4-c4cc3ccc4O)[C@H](O)c3ccc(c(Cl)c3)Oc3cc2cc(c3O[C@@H]2O[C@H](CO)[C@@H](O)[C@H](O)[C@H]2O[C@H]2C[C@](C)(N)[C@H](O)[C@H](C)O2)Oc2ccc(cc2Cl)[C@H]1O` [vancomycin, reference compound] the MIC (E. coli BW25113 [1]; Escherichia coli, BW25113, read-out: MIC of vancomycin (MICvanco)) was > 200 µg/mL and the “MIC of vancomycin (MICvanco)” value (E. coli BW25113 [1]; antibiotic without synergist, E. coli BW25113) was > 200 µg/mL.

For `CC[C@H](C)[C@H](NC(=O)[C@@H](NC(=O)[C@H](CCCCN)NC(=O)[C@H](CCC(N)=O)NC(=O)[C@@H](NC(=O)[C@H](Cc1c[nH]c2ccccc12)NC(=O)[C@H](CCCCN)NC(=O)[C@H](CCCCN)NC(=O)[C@H](CC(C)C)NC(=O)[C@H](CCCNC(=N)N)NC(=O)[C@H](Cc1ccccc1)NC(=O)[C@@H](N)C(C)C)[C@@H](C)CC)C(C)C)C(=O)O` [peptide 1] (H-VFRLKKWIQKVI-OH), the MSCery (E. coli BW25113 [3]) was 12.5 µg/mL, the “MIC of the peptide (MICpep)” value (E. coli BW25113 [3]) was 200 µg/mL and the “MSCpeptide, minimum synergistic concentration” value (E. coli BW25113 [3]) was 25 µg/mL. It also gave an MSCrif (E. coli BW25113 [4]) of 0.25 µg/mL, an MICpep (E. coli BW25113 [4]) of 200 µg/mL and an MSCpep (E. coli BW25113 [4]) of 12.5 µg/mL. For the same compound, the Hemolysis [6] was 0.1% and 0%.
